# From PubChem BioAssay AID1963843 (Molecular Pharmacology Branch, DTP, NCI, 2024)
# System: 616215-338-R-J1-PDC complex spheroid viability
# Assay: Anticancer human tumor 616215-338-R-J1-PDC patient-derived colon adenocarcinoma cell line growth inhibition [POLQ]
# Settings: for IC50: curve of first compound; for viability, T/C: stronger effect = lower value
# In short: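 Complex spheroid viability model combining PDC tumour cells with endothelial (HUVEC) and MSC stromal cells. Novobiocin, ART-558 or RP6685 were tested singly and in combination with standard and investigational anticancer drugs. Each was titrated in half-log steps from near clinical Cmax, or from 10 microM where Cmax was unknown.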
# [1] = second compound 0.0316 µM, first compound 0.0316 µM
# [2] = second compound 0.0316 µM, first compound 0.1 µM
# [3] = second compound 0.0316 µM, first compound 0.316 µM
# [4] = second compound 0.0316 µM, first compound 1 µM
# [5] = second compound 0.0316 µM, first compound 3.16 µM
# [6] = second compound 0.0316 µM, first compound 10 µM
# [7] = second compound 0.1 µM, first compound 0.0316 µM
# [8] = second compound 0.1 µM, first compound 0.1 µM
# [9] = second compound 0.1 µM, first compound 0.316 µM
# [10] = second compound 0.1 µM, first compound 1 µM
# [11] = second compound 0.1 µM, first compound 3.16 µM
# [12] = second compound 0.1 µM, first compound 10 µM
# [13] = second compound 0.316 µM, first compound 0.0316 µM
# [14] = second compound 0.316 µM, first compound 0.1 µM
# [15] = second compound 0.316 µM, first compound 0.316 µM
# [16] = second compound 0.316 µM, first compound 1 µM
# [17] = second compound 0.316 µM, first compound 3.16 µM
# [18] = second compound 0.316 µM, first compound 10 µM
# [19] = second compound 1 µM, first compound 0.0316 µM
# [20] = second compound 1 µM, first compound 0.1 µM
# [21] = second compound 1 µM, first compound 0.316 µM
# [22] = second compound 1 µM, first compound 1 µM
# [23] = second compound 1 µM, first compound 3.16 µM
# [24] = second compound 1 µM, first compound 10 µM
# [25] = second compound 3.16 µM, first compound 0.0316 µM
# [26] = second compound 3.16 µM, first compound 0.1 µM
# [27] = second compound 3.16 µM, first compound 0.316 µM
# [28] = second compound 3.16 µM, first compound 1 µM
# [29] = second compound 3.16 µM, first compound 3.16 µM
# [30] = second compound 3.16 µM, first compound 10 µM
# [31] = second compound 10 µM, first compound 0.0316 µM
# [32] = second compound 10 µM, first compound 0.1 µM
# [33] = second compound 10 µM, first compound 0.316 µM
# [34] = second compound 10 µM, first compound 1 µM
# [35] = second compound 10 µM, first compound 3.16 µM
# [36] = second compound 10 µM, first compound 10 µM
# 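Also: spheroids exposed to compounds for one week before readout.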
# 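For viability, T/C in this document: percent viability relative to DMSO vehicle wells taken as 100%.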
smiles,measurement,setting,value
CC(C)n1c(=O)n(C)c2cnc3cc(F)c(-c4ccc(OCCCN5CCCCC5)nc4)cc3c21 + Cc1cccc(N(C)C(=O)C2C(O)CCN2c2nc(C)cc(C(F)(F)F)c2C#N)c1,IC50,second compound 0.0316 µM,> 10 µM
same,IC50,second compound 0.1 µM,> 10 µM
same,IC50,second compound 0.316 µM,> 10 µM
same,IC50,second compound 1 µM,> 10 µM
same,IC50,second compound 3.16 µM,> 10 µM
same,IC50,second compound 10 µM,> 10 µM
same,"viability, T/C",[1],95.4%
same,"viability, T/C",[2],98.2%
same,"viability, T/C",[3],99.1%
same,"viability, T/C",[4],111%
same,"viability, T/C",[5],108%
same,"viability, T/C",[6],114%
same,"viability, T/C",[7],109%
same,"viability, T/C",[8],113%
same,"viability, T/C",[9],106%
same,"viability, T/C",[10],102%
same,"viability, T/C",[11],105%
same,"viability, T/C",[12],105%
same,"viability, T/C",[13],102%
same,"viability, T/C",[14],97.8%
same,"viability, T/C",[15],94.5%
same,"viability, T/C",[16],107%
same,"viability, T/C",[17],117%
same,"viability, T/C",[18],103%
same,"viability, T/C",[19],101%
same,"viability, T/C",[20],99.8%
same,"viability, T/C",[21],102%
same,"viability, T/C",[22],117%
same,"viability, T/C",[23],114%
same,"viability, T/C",[24],113%
same,"viability, T/C",[25],105%
same,"viability, T/C",[26],101%
same,"viability, T/C",[27],108%
same,"viability, T/C",[28],114%
same,"viability, T/C",[29],108%
same,"viability, T/C",[30],102%
same,"viability, T/C",[31],108%
same,"viability, T/C",[32],114%
same,"viability, T/C",[33],105%
same,"viability, T/C",[34],109%
same,"viability, T/C",[35],108%
same,"viability, T/C",[36],95.4%
C=CC(=O)N1CCN(c2nc(=O)n(-c3c(C)ccnc3C(C)C)c3nc(-c4c(O)cccc4F)c(F)cc23)C(C)C1 (stereo unspecified) + Cc1cccc(N(C)C(=O)C2C(O)CCN2c2nc(C)cc(C(F)(F)F)c2C#N)c1,IC50,second compound 0.0316 µM,> 10 µM
same,IC50,second compound 0.1 µM,> 10 µM
same,IC50,second compound 0.316 µM,> 10 µM
same,IC50,second compound 1 µM,> 10 µM
same,IC50,second compound 3.16 µM,> 10 µM
same,IC50,second compound 10 µM,> 10 µM
same,"viability, T/C",[1],102%
same,"viability, T/C",[2],95.3%
same,"viability, T/C",[3],95.8%
same,"viability, T/C",[4],109%
same,"viability, T/C",[5],100%
same,"viability, T/C",[6],98.3%
same,"viability, T/C",[7],95.6%
same,"viability, T/C",[8],95.3%
same,"viability, T/C",[9],88.2%
same,"viability, T/C",[10],105%
same,"viability, T/C",[11],104%
same,"viability, T/C",[12],90.3%
same,"viability, T/C",[13],93.8%
same,"viability, T/C",[14],99.2%
same,"viability, T/C",[15],99.6%
same,"viability, T/C",[16],104%
same,"viability, T/C",[17],108%
same,"viability, T/C",[18],97%
same,"viability, T/C",[19],96.7%
same,"viability, T/C",[20],86%
same,"viability, T/C",[21],88.1%
same,"viability, T/C",[22],101%
same,"viability, T/C",[23],105%
same,"viability, T/C",[24],86.2%
same,"viability, T/C",[25],96.6%
same,"viability, T/C",[26],122%
same,"viability, T/C",[27],103%
same,"viability, T/C",[28],101%
same,"viability, T/C",[29],97.6%
same,"viability, T/C",[30],91.6%
same,"viability, T/C",[31],105%
same,"viability, T/C",[32],99.6%
same,"viability, T/C",[33],90.9%
same,"viability, T/C",[34],104%
same,"viability, T/C",[35],95.3%
same,"viability, T/C",[36],73%
CCc1cc2c(N3CCc4c(cc(Cn5ccnc5)cc4-c4cn(C)nc4C(F)(F)F)C3=O)cc(C)nc2c(OC)n1 + Cc1cccc(N(C)C(=O)C2C(O)CCN2c2nc(C)cc(C(F)(F)F)c2C#N)c1,IC50,second compound 0.0316 µM,2.35 µM
same,IC50,second compound 0.1 µM,2.24 µM
same,IC50,second compound 0.316 µM,4.28 µM
same,IC50,second compound 1 µM,2.82 µM
same,IC50,second compound 3.16 µM,> 10 µM
same,IC50,second compound 10 µM,2.76 µM
same,"viability, T/C",[1],107%
same,"viability, T/C",[2],120%
same,"viability, T/C",[3],83%
same,"viability, T/C",[4],60.6%
same,"viability, T/C",[5],46.4%
same,"viability, T/C",[6],45.7%
same,"viability, T/C",[7],108%
same,"viability, T/C",[8],104%
same,"viability, T/C",[9],74.8%
same,"viability, T/C",[10],57.4%
same,"viability, T/C",[11],49.6%
same,"viability, T/C",[12],43.2%
same,"viability, T/C",[13],99.8%
same,"viability, T/C",[14],103%
same,"viability, T/C",[15],81%
same,"viability, T/C",[16],70.8%
same,"viability, T/C",[17],45.7%
same,"viability, T/C",[18],49.1%
same,"viability, T/C",[19],105%
same,"viability, T/C",[20],102%
same,"viability, T/C",[21],85%
same,"viability, T/C",[22],66.1%
same,"viability, T/C",[23],48%
same,"viability, T/C",[24],40%
same,"viability, T/C",[25],106%
same,"viability, T/C",[26],102%
same,"viability, T/C",[27],90.2%
same,"viability, T/C",[28],58%
same,"viability, T/C",[29],54.6%
same,"viability, T/C",[30],50.8%
same,"viability, T/C",[31],106%
same,"viability, T/C",[32],92.3%
same,"viability, T/C",[33],81.7%
same,"viability, T/C",[34],61.1%
same,"viability, T/C",[35],48%
same,"viability, T/C",[36],40.4%
